Key:
apoB = apoB degradation pathway in WT and PCSK7-/- IHH cells with pathway inhibitors; assay type: cell-based, human
Protocol: FIGS. 7A-l: PCSK7 can bind apoB in the ER and acts as a molecular chaperone-like facilitating its secretion, and its absence leads to a rapid degradation of apoB by the proteasome. […] (FIG. 7A) Western blot (presented on gel and graphically) of apoB100 and PC7 protein levels in WT and PCSK7^−/− IHH cells. Levels are normalized to α-tubulin. (FIG. 7B) Western blot (presented on gel and graphically) of apoB100 and PC7 protein levels over time (0, 15 and 30 minutes) in WT and PCSK7^−/− IHH cells incubated with cycloheximide (CHX) to block de novo mRNA translation. Levels are normalized to α-tubulin. (FIG. 7C-D) Western blot (presented on gel and graphically) of cellular apoB levels in WT and PCSK7^−/− IHH cells incubated with brefeldin A (BFA) that blocks exit from the endoplasmic reticulum (ER), an autophagy inhibitor 3-methyladenine (3MA), proteasome inhibitors MG132, Lactacystin, DMSO or non treated (NT) controls. (FIG. 7E) Western blot (presented on gel) of cellular apoB levels and polyubiquitinated apoB100 in WT and PCSK7^−/− IHH cells incubated with Lactacystin. (FIG. 7F) Schematic representation of apoB100 and apoB21 protein. […]

[1] = tested on: 3′-UTR of human PCSK7 mRNAs; assay: Dual-luciferase reporter assay, wild-type PCSK7 3′-UTR, HEK293T cells; assay type: cell-based; conditions: wild-type PCSK7 3′-UTR psiCHECK-2, HEK293T
Source text: The interactions between the miRNAs and their probable targets on PCSK7 were explored by cloning the potential target regions in psiCHECK-2™ (Promega, USA), a luciferase reporter vector. In psiCHECK-2™, hRluc, the Renilla luciferase gene, is located upstream of the target regions of interest cloned into the psiCHECK-2™ vector downstream of the Renilla gene. The region corresponding to the 3′-UTR of PCSK7 (926-nt sequences in length) that constituted the predicted miRNA response elements was PCR-amplified and cloned downstream of the Renilla luciferase gene in the psiCHECK-2™ vector (Promega, USA). […]
The HEK293T cells were co-transfected through the application of the wild-type psiCHECK-2, the wild-type PCSK7 3′-UTR, the mutant PCSK7 3′-UTR, and the miR-overexpressing vectors so that the direct interactions of the nominated miRNAs with PCSK7 3′-UTR could be investigated. […] Transfection efficiency was monitored by fluorescent microscopy (Nikon TE2000S, Japan) 36 hours following the procedure.
The PsiCHECK-2 reporter construct plasmid contained the Renilla luciferase gene upstream of PCSK7 3′-UTR and an independent firefly luciferase gene as an internal control for normalization. […] Then, LARII Reagent was added, and after 20 minutes, the firefly luciferase activity was measured as a control. Afterward, Renilla activity was determined using Stop & Glo Reagent. […]

PCSK7 mRNA [2] = assay: PCSK7 mRNA qPCR after miRNA overexpression in Huh7 cells; assay type: cell-based, human; conditions: Huh7, 48 hours following transfection, vs mock vector
Protocol: (§1) RNA was isolated from the cells with the TRIzol™ Reagent (Invitrogen, USA) according to the manufacturer's instructions. The RNA samples were treated with RNase-free DNase I (Fermentas, USA) to eliminate any possible DNA contamination. Reverse transcription was performed using the PrimeScript™ First Strand cDNA Synthesis Kit (Takara, Japan) following the manufacturer's protocol. Briefly, one unit of the DNase I enzyme, 1 μL of a buffer, and 1 μg of total RNA were incubated for 30 minutes at 37° C. Then, 1 μL of 50 mM EDTA was added for enzyme inactivation and incubated at 65° C. for 10 minutes. Subsequently, 5 μL of DNase-treated RNA was added to the mix of 0.5 μL of the reverse-transcriptase enzyme, 2 μL of the reverse-transcriptase buffer, and 1 μL of a random hexamer and incubated for 15 minutes at 37° C., followed by 5 seconds at 85° C. for enzyme inactivation. Stem-loop RT-qPCR method was applied for evaluating the expression of miRNAs (Kramer, 2011). […]
(§2) All the reactions were repeated in duplicates. Next, melt curves were analyzed, with the mean threshold cycles used for further analyses. The relative expressions of the miRNAs and PCSK7 to RNU48 small nuclear RNA and/or GAPDH and β2m were calculated, respectively, via the 2-ΔΔCt method. […]

PCSK7 mRNA [3] = assay: PCSK7 mRNA qPCR after miRNA overexpression in HEK293T cells; assay type: cell-based, human
Protocol: as §1, §2

[4] = target: T1, endogenous apoB100 of IHH cells (human, UniProt P04114 28-4563); assay: co-immunoprecipitation from IHH cell lysates with a human ApoB antibody, Western blot for the V5 tag (FIG. 7I)
T1 construct: Endogenous protein in lysates of human IHH cells; also called apolipoprotein B
T1 sequence (P04114 28-4563 limits assumed): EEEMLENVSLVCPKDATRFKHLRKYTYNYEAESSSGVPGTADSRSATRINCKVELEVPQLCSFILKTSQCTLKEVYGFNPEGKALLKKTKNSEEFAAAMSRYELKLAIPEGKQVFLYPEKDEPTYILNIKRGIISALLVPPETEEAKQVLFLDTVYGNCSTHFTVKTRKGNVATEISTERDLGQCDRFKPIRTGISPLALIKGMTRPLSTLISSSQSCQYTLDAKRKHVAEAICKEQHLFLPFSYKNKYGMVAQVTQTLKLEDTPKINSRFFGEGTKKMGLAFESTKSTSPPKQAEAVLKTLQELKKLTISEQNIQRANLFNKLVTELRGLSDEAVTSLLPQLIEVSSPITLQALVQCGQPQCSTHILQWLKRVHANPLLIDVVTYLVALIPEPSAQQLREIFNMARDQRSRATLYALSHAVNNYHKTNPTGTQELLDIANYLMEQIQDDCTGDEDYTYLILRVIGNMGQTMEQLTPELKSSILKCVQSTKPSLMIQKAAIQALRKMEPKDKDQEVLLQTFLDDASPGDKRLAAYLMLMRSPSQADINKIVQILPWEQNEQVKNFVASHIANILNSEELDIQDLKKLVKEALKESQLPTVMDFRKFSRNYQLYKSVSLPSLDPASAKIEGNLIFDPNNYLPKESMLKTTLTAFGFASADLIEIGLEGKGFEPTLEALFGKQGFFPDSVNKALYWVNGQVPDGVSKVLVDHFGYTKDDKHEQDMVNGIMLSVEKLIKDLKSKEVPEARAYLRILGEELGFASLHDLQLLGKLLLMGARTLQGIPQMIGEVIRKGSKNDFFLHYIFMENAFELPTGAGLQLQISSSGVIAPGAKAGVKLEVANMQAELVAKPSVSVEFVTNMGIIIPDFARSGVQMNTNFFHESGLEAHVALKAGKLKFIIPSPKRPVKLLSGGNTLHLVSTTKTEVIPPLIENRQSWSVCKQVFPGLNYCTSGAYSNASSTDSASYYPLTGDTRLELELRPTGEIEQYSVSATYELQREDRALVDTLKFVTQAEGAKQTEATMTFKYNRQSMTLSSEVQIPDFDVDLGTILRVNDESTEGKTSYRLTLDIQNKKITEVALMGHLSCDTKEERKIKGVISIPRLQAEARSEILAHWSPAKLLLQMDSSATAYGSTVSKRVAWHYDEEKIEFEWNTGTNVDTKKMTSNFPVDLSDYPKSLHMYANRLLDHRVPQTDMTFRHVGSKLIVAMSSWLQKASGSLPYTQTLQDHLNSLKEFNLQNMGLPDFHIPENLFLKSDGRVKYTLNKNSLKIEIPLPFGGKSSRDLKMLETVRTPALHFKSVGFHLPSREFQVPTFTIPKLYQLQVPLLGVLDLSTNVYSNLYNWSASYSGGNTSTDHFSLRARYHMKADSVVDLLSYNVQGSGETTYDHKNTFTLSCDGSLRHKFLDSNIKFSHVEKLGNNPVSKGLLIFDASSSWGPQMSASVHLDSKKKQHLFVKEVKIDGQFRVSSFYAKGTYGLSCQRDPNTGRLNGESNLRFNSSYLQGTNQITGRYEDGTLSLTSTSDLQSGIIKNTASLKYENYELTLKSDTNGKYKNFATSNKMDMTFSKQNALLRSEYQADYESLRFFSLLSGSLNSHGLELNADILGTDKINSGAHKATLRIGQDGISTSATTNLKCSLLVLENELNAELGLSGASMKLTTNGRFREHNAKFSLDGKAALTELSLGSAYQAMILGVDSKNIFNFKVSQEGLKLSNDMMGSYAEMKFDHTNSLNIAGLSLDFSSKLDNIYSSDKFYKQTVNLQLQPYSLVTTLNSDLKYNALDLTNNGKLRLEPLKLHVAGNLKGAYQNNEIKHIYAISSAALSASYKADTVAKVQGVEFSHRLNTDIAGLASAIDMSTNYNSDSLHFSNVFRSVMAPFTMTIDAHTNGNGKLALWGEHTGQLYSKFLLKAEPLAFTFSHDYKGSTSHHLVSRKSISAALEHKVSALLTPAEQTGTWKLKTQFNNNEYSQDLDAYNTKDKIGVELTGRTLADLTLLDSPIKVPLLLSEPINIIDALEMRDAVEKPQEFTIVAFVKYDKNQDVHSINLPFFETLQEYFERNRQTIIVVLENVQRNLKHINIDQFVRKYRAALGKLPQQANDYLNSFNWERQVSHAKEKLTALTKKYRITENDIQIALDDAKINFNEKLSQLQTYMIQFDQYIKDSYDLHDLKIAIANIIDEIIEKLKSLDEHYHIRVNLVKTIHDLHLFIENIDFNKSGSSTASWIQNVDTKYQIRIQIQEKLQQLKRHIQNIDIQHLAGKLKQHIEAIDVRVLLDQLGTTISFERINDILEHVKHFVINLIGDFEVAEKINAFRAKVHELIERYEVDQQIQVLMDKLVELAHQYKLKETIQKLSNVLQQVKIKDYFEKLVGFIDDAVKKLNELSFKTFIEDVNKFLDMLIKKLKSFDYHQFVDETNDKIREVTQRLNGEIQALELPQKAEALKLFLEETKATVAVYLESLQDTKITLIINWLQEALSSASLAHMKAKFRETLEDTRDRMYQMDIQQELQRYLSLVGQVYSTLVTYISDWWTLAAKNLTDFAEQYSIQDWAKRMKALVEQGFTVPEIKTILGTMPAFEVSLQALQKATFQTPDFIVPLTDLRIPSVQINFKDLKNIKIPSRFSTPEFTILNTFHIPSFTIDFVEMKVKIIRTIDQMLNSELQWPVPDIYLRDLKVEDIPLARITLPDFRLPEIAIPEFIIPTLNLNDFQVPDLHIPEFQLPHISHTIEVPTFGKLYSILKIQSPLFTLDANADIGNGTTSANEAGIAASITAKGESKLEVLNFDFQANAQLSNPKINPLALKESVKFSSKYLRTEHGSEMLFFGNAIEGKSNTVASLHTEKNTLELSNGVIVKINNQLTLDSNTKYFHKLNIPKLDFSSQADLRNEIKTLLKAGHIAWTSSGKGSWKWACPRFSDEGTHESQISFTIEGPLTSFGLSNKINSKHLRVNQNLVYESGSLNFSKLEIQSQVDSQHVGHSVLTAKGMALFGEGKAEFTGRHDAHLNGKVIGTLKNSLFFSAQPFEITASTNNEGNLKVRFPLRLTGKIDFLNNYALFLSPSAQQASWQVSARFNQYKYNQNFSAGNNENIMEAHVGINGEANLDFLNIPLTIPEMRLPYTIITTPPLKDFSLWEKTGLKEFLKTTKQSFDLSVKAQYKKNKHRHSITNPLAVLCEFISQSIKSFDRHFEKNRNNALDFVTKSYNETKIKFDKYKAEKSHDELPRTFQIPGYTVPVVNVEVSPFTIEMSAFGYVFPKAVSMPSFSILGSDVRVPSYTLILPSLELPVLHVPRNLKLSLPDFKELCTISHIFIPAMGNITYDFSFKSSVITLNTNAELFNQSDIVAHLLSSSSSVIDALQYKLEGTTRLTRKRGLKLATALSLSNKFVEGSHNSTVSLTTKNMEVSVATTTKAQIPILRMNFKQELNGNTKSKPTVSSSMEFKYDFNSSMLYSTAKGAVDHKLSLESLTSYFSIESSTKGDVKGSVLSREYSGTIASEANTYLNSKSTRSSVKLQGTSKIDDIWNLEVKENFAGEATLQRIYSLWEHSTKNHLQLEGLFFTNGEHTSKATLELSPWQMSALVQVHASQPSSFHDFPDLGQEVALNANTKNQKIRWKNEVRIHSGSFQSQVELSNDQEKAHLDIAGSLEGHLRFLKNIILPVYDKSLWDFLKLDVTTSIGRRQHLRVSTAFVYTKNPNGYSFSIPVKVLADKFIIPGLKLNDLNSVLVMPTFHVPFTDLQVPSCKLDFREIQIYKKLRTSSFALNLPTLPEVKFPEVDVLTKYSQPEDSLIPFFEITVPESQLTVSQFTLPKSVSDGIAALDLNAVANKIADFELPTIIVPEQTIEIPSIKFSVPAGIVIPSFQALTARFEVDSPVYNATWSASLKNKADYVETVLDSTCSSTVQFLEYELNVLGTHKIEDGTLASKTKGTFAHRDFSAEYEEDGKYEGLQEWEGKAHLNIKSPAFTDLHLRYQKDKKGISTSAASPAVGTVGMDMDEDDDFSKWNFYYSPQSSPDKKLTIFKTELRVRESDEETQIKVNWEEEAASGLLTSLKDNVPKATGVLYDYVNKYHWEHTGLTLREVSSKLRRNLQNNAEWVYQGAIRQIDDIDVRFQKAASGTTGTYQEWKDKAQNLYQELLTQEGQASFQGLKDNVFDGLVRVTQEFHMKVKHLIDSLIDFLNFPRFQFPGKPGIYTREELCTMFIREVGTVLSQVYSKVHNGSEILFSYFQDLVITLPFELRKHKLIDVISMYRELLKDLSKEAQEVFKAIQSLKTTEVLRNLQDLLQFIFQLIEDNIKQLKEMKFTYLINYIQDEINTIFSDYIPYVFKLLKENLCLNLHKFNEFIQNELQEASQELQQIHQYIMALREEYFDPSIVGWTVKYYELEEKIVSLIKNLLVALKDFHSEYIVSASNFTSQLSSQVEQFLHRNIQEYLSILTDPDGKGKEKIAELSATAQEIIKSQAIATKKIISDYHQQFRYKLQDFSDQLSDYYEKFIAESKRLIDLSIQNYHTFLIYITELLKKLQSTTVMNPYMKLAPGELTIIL

C[C@H]1CCC/C=C/[C@@H]2C[C@H](O)C[C@H]2[C@H](O)/C=C/C(=O)O1 [BFA, brefeldin A]
inhibition of apoB degradation (apoB): absence of BFA inhibition

miR-320a-3p: predicted PCSK7-targeting miRNA with one predicted target site, overexpressed from precursor vector (AAAAGCUGGGUUGAGAGGGCGA; miRNA expressed from a precursor vector, further chemistry not given here)
effect on luciferase activity [1]: no significant effect
effect on expression of PCSK7 mRNA (PCSK7 mRNA [2]): did not downregulate
effect on PCSK7 mRNA levels (PCSK7 mRNA [3]): no significant regulatory relationship

B1: SKI-1 tagged with V5 (enzyme, UniProt Q14703 187-1052, looked up)
chain: RAIPRQVAQTLQADVLWQMGYTGANVRVAVFDTGLSEKHPHFKNVKERTNWTNERTLDDGLGHGTFVAGVIASMRECQGFAPDAELHIFRVFTNNQVSYTSWFLDAFNYAILKKIDVLNLSIGGPDFMDHPFVDKVWELTANNVIMVSAIGNDGPLYGTLNNPADQMDVIGVGGIDFEDNIARFSSRGMTTWELPGGYGRMKPDIVTYGAGVRGSGVKGGCRALSGTSVASPVVAGAVTLLVSTVQKRELVNPASMKQALIASARRLPGVNMFEQGHGKLDLLRAYQILNSYKPQASLSPSYIDLTECPYMWPYCSQPIYYGGMPTVVNVTILNGMGVTGRIVDKPDWQPYLPQNGDNIEVAFSYSSVLWPWSGYLAISISVTKKAASWEGIAQGHVMITVASPAETESKNGAEQTSTVKLPIKVKIIPTPPRSKRVLWDQYHNLRYPPGYFPRDNLRMKNDPLDWNGDHIHTNFRDMYQHLRSMGYFVEVLGAPFTCFDASQYGTLLMVDSEEEYFPEEIAKLRRDVDNGLSLVIFSDWYNTSVMRKVKFYDENTRQWWMPDTGGANIPALNELLSVWNMGFSDGLYEGEFTLANHDMYYASGCSIAKFPEDGVVITQTFKDQGLEVLKQETAVVENVPILGLYQIPAEGGGRIVLYGDSNCLDDSHRQKDCFWLLDALLQYTSYGVTPPSLSHSGNRQRPPSGAGSVTPERMEGNHLHRYSKVLEAHLGDPKPRPLPACPRLSWAKPQPLNETAPSNLWKHQKLLSIDLDKVVLPNFRSNRPQVRPLSPGESGAWDIPGGIMPGRYNQEVGQTIPVFAFLGAMVVLAFFVVQINKAKSRPKRRKPRVKRPQLMQQVHPPKTPSV
notes: also called SKI-1-V5; not shown: V5 tag
binding result [4]: no binding
